Measurements as given in the supplement of paper PMC7600603.

How the values were obtained:
DLD1 NRF2-GOF [1] = experiment: drug sensitivity score (DSS) cytotoxicity (DSS score); higher = more toxic; extreme values may be limits of the assay; conditions: 72 h; CellTox Green cytotoxicity
Procedure, shortened: (§1)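 Isogenic DLD1 colorectal cancer cells, either NRF2 wild-type or CRISPR gain-of-function, were grown in DMEM with 10% FBS. They were exposed in 384-well plates to library compounds at 5 concentrations spanning a 10,000-fold range. After 72 h, cytotoxicity was read by CellTox Green on a Pherastar FS reader and normalised to vehicle wells and 100-μM positive-control wells. TC50 and drug sensitivity score (a normalised area under the curve) came from logistic dose-response fits.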

DLD1 NRF2-WT [2] = experiment: as above; conditions: 72 h; CellTox Green cytotoxicity
Procedure, shortened: as §1

DLD1 NRF2-GOF [3] = conditions: 72 h; CellTiter-Glo viability
Procedure, shortened: (§2)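 Library compounds were tested in 384-well plates at 5 concentrations covering a 10,000-fold span against isogenic DLD1 colorectal cancer cells, NRF2 wild-type or CRISPR gain-of-function, grown in DMEM with 10% FBS. Viability was measured at 72 h with CellTiter-Glo on a Pherastar FS reader, relative to vehicle wells and 100-μM positive-control wells. EC50 and drug sensitivity score (normalised area under the curve) were derived from logistic dose-response curves fitted with four parameters.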

DLD1 NRF2-WT [4] = conditions: 72 h; CellTiter-Glo viability
Procedure, shortened: as §2

DLD1 NRF2-GOF [5] = experiment: TC50 cytotoxicity; higher = less toxic; conditions: 72 h; CellTox Green cytotoxicity
Procedure, shortened: as §1

DLD1 NRF2-WT [6] = experiment: TC50 cytotoxicity; higher = less toxic; conditions: 72 h; CellTox Green cytotoxicity
Procedure, shortened: as §1

DLD1 NRF2-GOF [7] = experiment: drug sensitivity score (DSS) viability (DSS score); higher = more sensitive; extreme values may be limits of the assay; conditions: 72 h; CellTiter-Glo viability
Procedure, shortened: as §2

DLD1 NRF2-WT [8] = experiment: as above; conditions: 72 h; CellTiter-Glo viability
Procedure, shortened: as §2

| Structure (SMILES) | drug sensitivity score (DLD1 NRF2-GOF [1]) | drug sensitivity score (DLD1 NRF2-WT [2]) | EC50 viability (DLD1 NRF2-GOF [3]) [µM] | EC50 viability (DLD1 NRF2-WT [4]) [µM] | TC50 cytotoxicity (DLD1 NRF2-GOF [5]) [µM] | TC50 cytotoxicity (DLD1 NRF2-WT [6]) [µM] | drug sensitivity score (DLD1 NRF2-GOF [7]) | drug sensitivity score (DLD1 NRF2-WT [8]) |
| --- | --- | --- | --- | --- | --- | --- | --- | --- |
| C=C1C[C@@H]2[C@H](CC[C@]3(C)C(=O)CC[C@@H]23)[C@@]2(C)C=CC(=O)C=C12 [Exemestane] | 0 | 0 | > 10 | > 10 | > 10 | > 10 | 0.9 | 0.1 |
| NC(=O)N1CCC(CC(=O)N2CCC([C@H]3c4ncc(Br)cc4CCc4cc(Cl)cc(Br)c43)CC2)CC1 [Lonafarnib] | 6.7 | 6.3 | 14.2 | 10.5 | 24.2 | 23.5 | 9.7 | 11 |
| C=CC(=O)N1CCC[C@@H](n2nc(-c3ccc(Oc4ccccc4)cc3)c3c(N)ncnc32)C1 [Ibrutinib] | 0 | 0 | > 1 | > 1 | > 1 | > 1 | 0 | 0.1 |
| CNc1ncc2cc(-c3cc(NC(=O)NCCC(C)(C)C)c(F)cc3C)c(C)nc2n1 | 0 | 0 | 0.718 | 0.496 | > 10 | > 10 | 6.4 | 9.9 |
| CC(=O)c1c(C)c2cnc(Nc3ccc(N4CCNCC4)cn3)nc2n(C2CCCC2)c1=O [Palbociclib] | 0 | 0.2 | 1.49 | 0.315 | > 10 | > 10 | 6.7 | 12.3 |
| C[C@]1(O)C[C@@H](c2nc(-c3ccc4ccc(-c5ccccc5)nc4c3)c3c(N)nccn32)C1 [Linsitinib] | 0 | 0 | > 10 | > 10 | > 10 | > 10 | 0 | 0 |
| CO[C@H]1CC[C@H](N2C(=O)CNc3ncc(-c4ccc(C(C)(C)O)nc4)nc32)CC1 [CC-223] | 0.1 | 0 | 1.71 | 2.25 | > 10 | > 10 | 5.3 | 4.6 |
| COC(=O)N[C@@H](C)CNc1nccc(-c2cn(C(C)C)nc2-c2cc(Cl)cc(NS(C)(=O)=O)c2F)n1 [Encorafenib] | 0 | 0 | 0.387 | 0.412 | > 1 | > 1 | 1.3 | 1.1 |
| COc1cc2ncnc(Nc3ccc(F)c(Cl)c3)c2cc1NC(=O)/C=C/CN1CCCCC1 [Dacomitinib] | 0 | 0 | 0.247 | 0.0964 | > 1 | > 1 | 2.4 | 5.9 |
| CCOc1ccccc1-n1c(C(C)N2CCN(C(=O)COc3ccc(Cl)cc3)CC2)nc2ccccc2c1=O (stereo unspecified) [Erastin] | 0 | 0 | > 10 | > 10 | > 10 | > 10 | 0 | 0 |
| Oc1ccc2c(c1)CC[C@H](c1ccccc1)[C@@H]2c1ccc(OCCN2CCCC2)cc1 [Lasofoxifene] | 0 | 0 | > 1 | > 1 | > 1 | > 1 | 0 | 0 |
| CCN(CC)C(=S)SSC(=S)N(CC)CC [Disulfiram(+CuCl2)] | 0 | 0 | > 50 | > 50 | > 50 | > 50 | 0.1 | 0.1 |
| C[C@H]1C=C2C(=O)O[C@H]3CC[C@@H](C1)[C@@]23O [Galiellalactone] | 0 | 0 | 0.414 | > 25 | > 25 | > 25 | 5.1 | 2.8 |
| Cc1cc(C)c(CNC(=O)c2cc(-c3ccc(CN4CCOCC4)cc3)cc3c2cnn3C2CCCC2)c(=O)[nH]1 [EPZ-5687] | 0 | 0 | 1.68 | > 10 | > 10 | > 10 | 3.2 | 3.3 |
| COC[C@H](NC(=O)c1cnc(C)s1)C(=O)N[C@@H](COC)C(=O)N[C@@H](Cc1ccccc1)C(=O)[C@@]1(C)CO1 [Oprozomib] | 15.9 | 19.7 | 0.0504 | 0.067 | 0.116 | 0.0569 | 20.2 | 18.8 |
| CN1CCN(C(=O)c2ccc3cc(CCNc4ncnc5ccc(C#N)cc45)ccc3c2)CC1 [Senexin B] | 0 | 0 | 0.114 | 0.103 | > 1 | > 1 | 3.6 | 3.5 |
| O=C(NCc1ccncc1)C12CC3CC(C1)CC(c1ccc(Cl)cc1)(C3)C2 | 0.3 | 0 | 4.09 | 5.14 | > 50 | > 50 | 9 | 8.7 |
| CCOCc1nc2c(N)nc3ccccc3c2n1CC(C)(C)O [Resiquimod] | 0 | 0 | > 10 | > 10 | > 10 | > 10 | 0.6 | 0.7 |
| CCc1cncnc1N1CCN(Cc2nc3cc(C(F)(F)F)ccc3[nH]2)CC1 | 0 | 0 | 1.53 | 1.51 | > 10 | > 10 | 3 | 4.6 |
| CCN(CC)CCN(Cc1ccc(-c2ccc(C(F)(F)F)cc2)cc1)C(=O)Cn1c(SCc2ccc(F)cc2)nc(=O)c2c1CCC2 [Darapladib] | 0 | 0 | > 1 | > 1 | > 1 | > 1 | 4.1 | 0 |
| CN1CCN(C2CCN(C(=O)Nc3cc(Oc4ccc(NC(=O)C5(C(=O)Nc6ccc(F)cc6)CC5)c(F)c4)ccn3)CC2)CC1 [Golvatinib] | 0 | 0 | > 2.5 | > 2.5 | > 2.5 | > 2.5 | 0 | 1.2 |

| Structure (SMILES) | drug sensitivity score (DLD1 NRF2-GOF [1]) | drug sensitivity score (DLD1 NRF2-WT [2]) | EC50 viability (DLD1 NRF2-GOF [3]) [µM] | EC50 viability (DLD1 NRF2-WT [4]) [µM] | TC50 cytotoxicity (DLD1 NRF2-GOF [5]) [µM] | TC50 cytotoxicity (DLD1 NRF2-WT [6]) [µM] | drug sensitivity score (DLD1 NRF2-GOF [7]) | drug sensitivity score (DLD1 NRF2-WT [8]) |
| --- | --- | --- | --- | --- | --- | --- | --- | --- |
| N#CCNC(=O)c1ccc(-c2ccnc(Nc3ccc(N4CCOCC4)cc3)n2)cc1 [Momelotinib] | 0.1 | 0.2 | 3.25 | 2.8 | > 10 | > 10 | 2.8 | 4.1 |
| O=C1c2c(O)ccc(O)c2C(=O)c2c(NCCNCCO)ccc(NCCNCCO)c21 [Mitoxantrone] | 0 | 0 | 0.0969 | 0.0674 | > 1 | > 1 | 10.1 | 12.3 |
| Sc1ncnc2nc[nH]c12 [Mercaptopurine] | 0 | 0 | 1.72 | 4.29 | > 10 | > 10 | 6.5 | 2.1 |
| CCn1c(=O)c(-c2ccc(Cl)cc2Cl)cc2cnc(Nc3ccc(N4CCNCC4)c(F)c3)nc21 [FRAX486] | 0 | 0 | 0.626 | 0.25 | > 5 | > 5 | 7.1 | 9.8 |
| CN1CCN(C2CCC(n3cc(-c4ccc(Oc5ccccc5)cc4)c4c(N)ncnc43)CC2)CC1 (stereo unspecified) | 5.3 | 4.5 | 3.27 | 1.71 | 3.09 | 3.23 | 5.4 | 8.8 |
| Nc1ncn([C@@H]2O[C@H](CO)[C@@H](O)[C@H]2O)c(=O)n1 [Azacitidine] | 0 | 0 | 1.38 | 4.01 | > 10 | > 10 | 3.3 | 1 |
| COc1cc(N2CCC(N3CCN(C)CC3)CC2)ccc1Nc1ncnc(Nc2ccccc2S(=O)(=O)C(C)C)n1 [ASP3026] | 0 | 0 | 3.42 | 3.55 | > 10 | > 10 | 3 | 3.3 |
| Nc1ccn([C@@H]2O[C@H](CO)[C@@H](O)[C@@H]2O)c(=O)n1 [Cytarabine] | 0 | 0 | 0.477 | 0.65 | > 10 | > 10 | 6.5 | 5 |
| CC[C@@H]1[C@H](F)C(=O)N[C@@H]1COc1nccc2cc(C(N)=O)c(OC)cc12 | 0 | 0 | > 10 | > 10 | > 10 | > 10 | 2.4 | 0.5 |
| CC[C@@]1(O)C(=O)OCc2c1cc1n(c2=O)Cc2cc3c(CN(C)C)c(O)ccc3nc2-1 [Topotecan] | 1.9 | 3.1 | 1.09 | 1.5 | 3.39 | 2.2 | 9.2 | 8.1 |
| CCN(CC)CCCC(C)Nc1ccnc2cc(Cl)ccc12 (stereo unspecified) [Chloroquine] | 5 | 6 | 9.78 | 6.41 | 25.8 | 26.1 | 11.8 | 13.8 |
| CNC(=O)c1ccc(-c2cnc3ncc(Cc4ccc5ncccc5c4)n3n2)cc1F [Capmatinib] | 0 | 0 | > 1 | > 1 | > 1 | > 1 | 0 | 0 |
| CS(=O)(=O)N1CCN(Cc2cc3nc(-c4cccc5[nH]ncc45)nc(N4CCOCC4)c3s2)CC1 [Pictilisib] | 0 | 0.1 | 1.59 | 1 | > 10 | > 10 | 5.8 | 6.8 |
| O=c1[nH]c(=O)n([C@H]2C[C@H](O)[C@@H](CO)O2)cc1F [Floxuridine] | 0 | 0 | 0.259 | 0.255 | > 10 | > 10 | 11.8 | 12.2 |
| COc1cc(Nc2c(C#N)cnc3cc(OCCCN4CCN(C)CC4)c(OC)cc23)c(Cl)cc1Cl [Bosutinib] | 3.1 | 3.8 | 1.48 | 1.22 | 3.43 | 3.5 | 9.3 | 10 |
| CCn1c(-c2nonc2N)nc2cnc(Oc3cccc(NC(=O)c4ccc(OCCN5CCOCC5)cc4)c3)cc21 | 6.1 | 1.2 | 2.3 | 1.99 | 1.55 | > 10 | 6.3 | 5.4 |
| C[C@H]1O[C@@H](O[C@H]2[C@@H](O)C[C@H](O[C@H]3[C@@H](O)C[C@H](O[C@H]4CC[C@@]5(C)[C@H](CC[C@@H]6[C@@H]5C[C@@H](O)[C@]5(C)[C@@H](C7=CC(=O)OC7)CC[C@]65O)C4)O[C@@H]3C)O[C@@H]2C)C[C@H](O)[C@@H]1O [Digoxin] | 4.6 | 4.3 | 0.0245 | 0.0473 | 0.217 | 0.327 | 18.8 | 15.8 |
| O=C(/C=C/c1cccnc1)NCCCCC1CCN(C(=O)c2ccccc2)CC1 [Daporinad] | 0 | 0 | 0.0049 | 0.004 | > 1 | > 1 | 25.9 | 27.6 |
| CC(C)[C@H]1C(=O)N[C@@H](CCCNC(=N)N)C(=O)NCC(=O)N[C@@H](CC(=O)O)C(=O)N[C@H](Cc2ccccc2)C(=O)N1C [Cilengitide] | 0 | 0 | 0.315 | > 10 | > 10 | > 10 | 3.9 | 0 |
| CC(=O)N(O)CCCCCNC(=O)CCC(=O)N(O)CCCCCNC(=O)CCC(=O)N(O)CCCCCN [Deferoxamine] | 0 | 0 | 2.01 | 3.25 | > 10 | > 10 | 7 | 4.8 |
| CCc1cnn2c(NCc3ccc[n+]([O-])c3)cc(N3CCCC[C@H]3CCO)nc12 [Dinaciclib] | 0 | 3.3 | 0.0096 | 0.0034 | > 1 | > 1 | 21 | 27.5 |
